The values that follow come from US20090029983A1, “NOVEL HETEROCYCLIC COMPOUNDS HAVING ANTI-HBV ACTIVITY” (priority 2005, published 2009).

Assay [1] concerns HBV. As to the kind of experiment: HBV screening assay (viral DNA in baculovirus-HBV transduced HepG2 cells). It is filed as cell-based. The note with it: Hepatitis B virus, HepG2, 72 h, read-out: EC50 (antiviral activity), HBV-transduced HepG2 cells, three days with compound, viral DNA by ELISA. The method in brief: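 HepG2 cells transduced with baculovirus carrying the HBV genome were grown 3 days at 37 °C with compound in EMEM/10% FBS; viral DNA from lysates captured by solid-phase hybridisation with digoxigenin probes and read by anti-digoxigenin HRP ELISA. EC50 from titration curves; CC50 from non-transduced HepG2 after 3 days by MTS viability.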

For assay [2], the system named is HBV. To be noted: HBV treatment, background statement; cited from earlier work.

Some results are limits rather than exact numbers.

`NC(=O)c1sc2nc3c(c(-c4cccs4)c2c1N)CN(C(=S)NCCCc1ccccc1)C3` [Compound 86, 3-Amino-6-(3-phenyl-propylthiocarbamoyl)-4-thiophen-2-yl-6,7-dihydro-5H-1-thia-6,8-diaza-s-indacene-2-carboxylic acid amide]: in the assay with HBV [1], the EC50 lay within 1 to 10 µM. `NC(=O)c1sc2nc3c(c(-c4cccs4)c2c1N)CN(C(=S)Nc1cccc(C(F)(F)F)c1)C3` [Compound 87, 3-Amino-4-thiophen-2-yl-6-(3-trifluoromethyl-phenylthiocarbamoyl)-6,7-dihydro-5H-1-thia-6,8-diaza-s-indacene-2-carboxylic acid amide]: the EC50 with HBV [1] was above 10 µM. With `NC(=O)c1sc2nc3c(c(-c4cccs4)c2c1N)CN(C(=S)Nc1ccc(F)cc1)C3` [Compound 88, 3-Amino-6-(4-fluoro-phenylthiocarbamoyl)-4-thiophen-2-yl-6,7-dihydro-5H-1-thia-6,8-diaza-s-indacene-2-carboxylic acid amide], the EC50 with HBV [1] is above 10 µM. With `NC(=O)c1sc2nc3c(c(-c4cccs4)c2c1N)CN(C(=S)Nc1cc(Cl)cc(Cl)c1)C3` [Compound 89, 3-Amino-6-(3,5-dichloro-phenylthiocarbamoyl)-4-thiophen-2-yl-6,7-dihydro-5H-1-thia-6,8-diaza-s-indacene-2-carboxylic acid amide], the EC50 with HBV [1] was above 10 µM. The same measure, in the same setting: the value for `COC(=O)c1ccc(NC(=S)N2Cc3nc4sc(C(N)=O)c(N)c4c(-c4cccs4)c3C2)cc1` [Compound 90, 4-[(3-Amino-2-carbaomyl-4-thiophen-2-yl-5,7-dihydro-1-thia-6,8-diaza-s-indacene-6-carbothioyl)-amino]benzoic acid methylester] was above 10 µM. As for `NC(=O)c1sc2nc3c(c(-c4cccs4)c2c1N)CN(C(=S)NC1CC1)C3` [Compound 91, 3-Amino-6-cyclopropylthiocarbamoyl-4-thiophen-2-yl-6,7-dihydro-5H-1-thia-6,8-diaza-s-indacene-2-carboxylic acid amide], in the assay with HBV [1], the EC50 was in the range of 1 to 10 µM. As for `Cc1cc(C)cc(NC(=S)N2Cc3nc4sc(C(N)=O)c(N)c4c(-c4cccs4)c3C2)c1` [Compound 92, 3-Amino-6-(3,5-dimethyl-phenylthiopcarbamoyl)-4-thiophen-2-yl-6,7-dihydro-5H-1-thia-6,8-diaza-s-indacene-2-carboxylic acid amide], the EC50 with HBV [1] is above 10 µM. Same read-out and setting: to `NC(=O)c1sc2nc3c(c(-c4cccs4)c2c1N)CN(C(=S)NCCN1CCOCC1)C3` [Compound 93, 3-Amino-6-(2-morpholin-4-yl-ethylthiocarbamoyl)-4-thiophen-2-yl-6,7-dihydro-5H-1-thia-6,8-diaza-s-indacene-2-c arboxylic acid amide] belongs above 10 µM; to `NC(=O)c1sc2nc3c(c(-c4cccs4)c2c1N)CN(C(=S)NCCCN1CCOCC1)C3` [Compound 94, 3-Amino-6-(3-morpholin-4-yl-propylthiocarbamoyl)-4-thiophen-2-yl-6,7-dihydro-5H-1-thia-6,8-diaza-s-indacene-2-carboxylic acid amide], above 10 µM; to `NC(=O)c1sc2nc3c(c(-c4cccs4)c2c1N)CN(C1=NCCS1)C3` [Compound 95, 3-Amino-6-(4,5-dihydro-thiazol-2-yl)-4-thiophen-2-yl-6,7-dihydro-5H-1-thia-6,8-diaza-s-indacene-2-carboxylic acid amide], below 1 µM.

For `NC(=O)c1sc2nc3c(c(-c4cccs4)c2c1N)CN(C(=O)Nc1ccccc1)C3` [Compound 96, 3-Amino-4-thiophen-2-yl-5,7-dihydro-1-thia-6,8-diaza-s-indacene-2,6-dicarboxylicacid 2-amide 6-phenylamide], the EC50 in the assay with HBV [1] was above 10 µM.

As for `CCNC(=O)N1Cc2nc3sc(C(N)=O)c(N)c3c(-c3cccs3)c2C1` [Compound 98, 3-Amino-4-thiophen-2-yl-5,7-dihydro-1-thia-6,8-diaza-s-indacene-2,6-dicarboxylicacid 2-amide 6-ethylamide], the EC50 in the assay on HBV [1] was below 1 µM. On to `NC(=O)c1sc2nc3c(c(-c4cccs4)c2c1N)CN(C(=S)Nc1ccsc1)C3` [Compound 100, 3-Amino-4-thiophen-2-yl-5,7-dihydro-1-thia-6,8-diaza-s-indacene-2,6-dicarboxylicacid 2-amide 5-thiophen-3-ylamide], for which the EC50 in the assay with HBV [1] was below 1 µM. As for `NC(=O)c1sc2nc3c(c(-c4cccs4)c2c1N)CN(C(=O)Nc1ccc(N2CCOCC2)nc1)C3` [Compound 102, 3-Amino-4-thiophen-2-yl-5,7-dihydro-1-thia-6,8-diaza-s-indacene-2,6-dicarboxylicacid 2-amide 6-[(6-morpholin-4-yl-pyridin-3-yl)-amide]], in the assay with HBV [1], the EC50 is above 10 µM. `NC(=O)c1sc2nc3c(c(-c4cccs4)c2c1N)CN(C(=O)CCl)C3` [Compound 104, 3-Amino-6-(2-chloro-acetyl)-4-thiophen-2-yl-6,7-dihydro-5H-1-thia-6,8-diaza-s-indacene-2-carboxylic acid amide]: the EC50 with HBV [1] was in the range of 1 to 10 µM.

Consider `NC(=O)c1sc2nc3c(c(-c4cccs4)c2c1N)CN(C(=O)c1ccc(N2CCOCC2)nc1)C3` [Compound 105, 3-Amino-6-(6-morpholin-4-yl-pyridine-3-carbonyl)-4-thiophen-2-yl-6,7-dihydro-5H-1-thia-6,8-diaza-s-indacene-2-carboxylicacid amide], for which the EC50 with HBV [1] was above 10 µM.

`NC(=O)c1sc2nc3c(c(-c4cccs4)c2c1N)CCC1CCCCC31` (stereo not drawn) [Compound 107, 8-Amino-7-thiophen-2-yl-1,2,3,4,4a,5,6,11b-octahydro-10-thia-11-aza-cyclopenta[b]phenanthrene-9-carboxylic acid amide]: in the assay with HBV [1], the EC50 is above 10 µM. Consider `CC(C)(C)C(=O)OCOP(=O)(COCCn1cnc2c(N)ncnc21)OCOC(=O)C(C)(C)C` [adefovir dipivoxil, 9-(2-((-bis((pivaloyloxy)methoxy)phosphinyl)methoxy)ethyl)adenine], for which, in the assay with HBV [2], the “sustained viral response rate” value is “below 20%”.
